# Laboratory results taken from ChEMBL document CHEMBL1201862, “PubChem BioAssay data set” (2004).
# Where “and” joins values, the source holds several entries; their conditions need not be identical. Equal values may be shown once. Calls of active or inactive are those of the source.
# What was measured:
# [1] = target: T1, Tyrosine-protein phosphatase non-receptor type 7 (Homo sapiens, UniProt P35236); experiment: SAR analysis of chemical inhibitors of HePTP using a Fluorescent assay - Set 2. [Related pubchem assays (depositor defined):AID1059, AID1077, AID1661, AID2085, AID521]; assay type: functional
# T1 sequence (P35236 whole entry): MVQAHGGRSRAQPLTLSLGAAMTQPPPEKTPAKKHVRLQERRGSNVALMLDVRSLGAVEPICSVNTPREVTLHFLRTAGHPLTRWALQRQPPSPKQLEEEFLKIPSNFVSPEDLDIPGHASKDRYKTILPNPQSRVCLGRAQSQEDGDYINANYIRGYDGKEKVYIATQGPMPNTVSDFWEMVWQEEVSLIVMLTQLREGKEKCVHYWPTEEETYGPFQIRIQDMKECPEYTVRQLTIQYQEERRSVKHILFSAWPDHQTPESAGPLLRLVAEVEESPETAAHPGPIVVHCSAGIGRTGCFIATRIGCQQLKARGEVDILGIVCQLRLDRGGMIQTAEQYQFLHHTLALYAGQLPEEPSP
# [2] = target: DNA dC->dU-editing enzyme APOBEC-3A (Homo sapiens, UniProt P31941); experiment: APOBEC3A DNA deaminase inhibitors, dose response, biochemical (AID 504722); assay type: functional
# [3] = target: T2, Dual specificity protein phosphatase 3 (Homo sapiens, UniProt P51452); experiment: SAR VHR1 Fluorescent Assay for In Vitro dose response studies Set 2. [Related pubchem assays (depositor defined):AID1654, AID1661, AID1878]; assay type: functional
# [4] = target: T1, Tyrosine-protein phosphatase non-receptor type 7; experiment: redox-dependent HePTP inhibition, mechanism study, biochemical, fluorescence (AID 2068); assay type: functional
# [5] = target: T3, Dual specificity protein phosphatase 6 (Rattus norvegicus, UniProt Q64346); experiment: SAR analysis of inhibitors of MKP-3 - Set 2. [Related pubchem assays (depositor defined):AID1055, AID1661, AID425, AID553, AID566]; assay type: functional
# T3 sequence (Q64346 whole entry): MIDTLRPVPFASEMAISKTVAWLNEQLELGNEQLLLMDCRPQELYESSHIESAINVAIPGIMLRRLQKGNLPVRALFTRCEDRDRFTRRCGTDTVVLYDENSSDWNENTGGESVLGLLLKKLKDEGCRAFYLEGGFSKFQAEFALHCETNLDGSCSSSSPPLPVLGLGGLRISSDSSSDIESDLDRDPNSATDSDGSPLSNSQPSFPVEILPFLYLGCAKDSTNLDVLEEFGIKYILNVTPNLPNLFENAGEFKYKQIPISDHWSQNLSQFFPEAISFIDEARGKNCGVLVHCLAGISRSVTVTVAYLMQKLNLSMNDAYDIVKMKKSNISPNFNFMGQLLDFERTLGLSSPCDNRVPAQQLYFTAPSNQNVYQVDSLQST
# [6] = target: T2, Dual specificity protein phosphatase 3; experiment: SAR VHR1 Fluorescent Assay for In Vitro dose response studies. [Related pubchem assays (depositor defined):AID1654, AID1661, AID1878, AID1992, AID2004, AID2070, AID2085]; assay type: functional
# [7] = target: T1, Tyrosine-protein phosphatase non-receptor type 7; experiment: HePTP (PTPN7) phosphatase inhibitor potency, SAR follow-up, biochemical, set 2 (AID 449736); assay type: functional
# [8] = target: DNA dC->dU-editing enzyme APOBEC-3G (Homo sapiens, UniProt Q9HC16); experiment: Dose Response confirmation of small molecule APOBEC3G DNA Deaminase Inhibitors via a fluorescence-based single-stranded DNA deaminase assay. [Related pubchem assays (depositor defined):AID493012, AID493028]; assay type: functional
# [9] = target: T2, Dual specificity protein phosphatase 3; experiment: SAR VHR1 absorbance Assay for In Vitro dose response studies. [Related pubchem assays (depositor defined):AID1654, AID1661, AID1878, AID1992, AID2004]
# [10] = target: T3, Dual specificity protein phosphatase 6; assay type: functional
# Beta Lactamase = Beta Lactamase (Pseudomonas aeruginosa, UniProt Q932Y6); experiment: beta-lactamase reporter inhibitor potency, dose response, artefact control for TLR9-MyD88 binding inhibitor project, BLA reporter cells, FRET fluorescence (AID 588341); assay type: cell-based;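 note: cell based assay in CHO-K1 cells stably expressing beta-lactamase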
# [11] = Luminescence Cell-Based Dose Retest to Confirm Inhibitors of Cancer Stem Cells. [Related pubchem assays (depositor defined):AID2717, AID2721]; assay type: functional; settings: Homo sapiens
# CHO = experiment: cytotoxicity in TLR9-MyD88 CHO cells, dose response, cytotoxicity control for TLR9-MyD88 binding inhibitor project, cell-based, luminescence (AID 588339); assay type: functional, hamster; settings: Cricetulus griseus;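 note: CHO cells stably coexpressing TLR9 and MyD88 fusions from primary screen; compound exposure lasted 48 hours before viability readout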
# [12] = cytotoxicity toward DRD oncogenic fibroblasts, dose response, cell-based, non-viral oncogenic, luminescence (AID 1934); assay type: functional; settings: Homo sapiens
# BJ [13] = experiment: cells; assay type: functional, cell-based; settings: Homo sapiens
# BJ [14] = experiment: cytotoxicity toward Ras-transformed BJeLR fibroblasts, dose response, cell-based, alamar blue fluorescence, cherrypicked samples (AID 2631); assay type: functional; settings: Homo sapiens;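 note: confirmatory dose-response assay in RAS-dependent BJ fibroblasts engineered with TERT, LT and ST, with cytotoxicity read by fluorescence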
# BJ [15] = experiment: cytotoxicity toward BJ-TERT fibroblasts, dose response, cell-based, RAS-independent, luminescence (AID 1933); assay type: functional; settings: Homo sapiens
# [16] = target: Sphingosine 1-phosphate receptor 2 (Homo sapiens, UniProt O95136); experiment: Dose Response Cell Based Assay for Antagonists of the S1P2 Receptor. [Related pubchem assays: 856, 736 ]; assay type: functional
# BJ [17] = experiment: cytotoxicity toward BJ-TERT-LT-ST fibroblasts, dose response, cell-based, RAS-independent, luminescence (AID 1935); assay type: functional; settings: Homo sapiens;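 note: BJ fibroblasts immortalized with TERT plus LT and ST oncogenes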
# [18] = target: T4, Mannose-6-phosphate isomerase (Homo sapiens, UniProt P34949); experiment: human PMI inhibitors, high substrate, primary screen, biochemical, fluorescence intensity, high mannose 6-phosphate (AID 1220)
# T4 sequence (P34949 whole entry): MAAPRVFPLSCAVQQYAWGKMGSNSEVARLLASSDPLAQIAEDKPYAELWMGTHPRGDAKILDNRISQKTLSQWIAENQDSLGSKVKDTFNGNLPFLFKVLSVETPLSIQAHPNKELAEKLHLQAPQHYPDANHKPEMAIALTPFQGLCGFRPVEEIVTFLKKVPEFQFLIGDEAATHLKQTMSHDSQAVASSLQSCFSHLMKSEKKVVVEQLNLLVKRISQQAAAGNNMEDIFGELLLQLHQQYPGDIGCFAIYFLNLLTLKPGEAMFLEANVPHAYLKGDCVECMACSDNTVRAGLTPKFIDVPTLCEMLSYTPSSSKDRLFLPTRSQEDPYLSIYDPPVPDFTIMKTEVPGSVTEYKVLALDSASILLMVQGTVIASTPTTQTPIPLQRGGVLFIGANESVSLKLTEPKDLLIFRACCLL
# [19] = target: ATP-dependent molecular chaperone HSP82 (Candida albicans (strain WO-1) (Yeast), UniProt C4YTQ8); experiment: loss of DOC-induced GRE-beta-galactosidase reporter signal, dose response, Hsp90 inhibitor project, S. cerevisiae, luminescence (AID 2400); assay type: functional, cell-based;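 note: beta-galactosidase luminescence from glucocorticoid response element reporter as proxy for Hsp90 function; inhibitor potency where signal loss means Hsp90 inhibition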
# [20] = CEM21 lymphoblast cell cytotoxicity, dose response, cytotoxicity control for viral fusion inhibitor project, CellTiter-Glo luminescence, cherry-picked (AID 652042); assay type: functional, cell-based;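 note: potency for signal decrease meaning cytotoxicity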
# [21] = C. albicans growth with fluconazole, confirmation, fluorescence, retest (AID 2467); assay type: functional, cell-based
# [22] = NIH-3T3 fibroblast cytotoxicity, dose response, cytotoxicity control, cell-based, fluorescence, Alamar Blue, secondary assay (AID 2327); assay type: functional;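 note: NIH-3T3 mouse fibroblasts cultured with fluconazole at 8 µg/mL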
# [23] = ZM109 Env clade C HIV-1 fusion inhibitors, dose response, HeLa effector, CEM target cells, luciferase, cherry-pick (AID 652058); assay type: functional, cell-based
# [24] = inhibitors of HIV Env-driven cell fusion, dose response, cherry-pick (AID 652057); assay type: functional, cell-based
# [25] = target: Serine/threonine-protein phosphatase (Candida dubliniensis (strain CD36 / CBS 7987 / NCPF 3949 / NRRLY-17841) (Yeast), UniProt B9W6M3); experiment: calcineurin pathway inhibitors in yeast reporter, dose response, S. cerevisiae, CDRE-lacZ, luminescence, secondary (AID 2388); assay type: functional, cell-based;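 note: yeast reporter cells carrying a calcineurin-responsive lacZ construct stimulated with calcium chloride; luminescent beta-galactosidase reporter signal in whole cells rather than isolated phosphatase activity; potency for inhibition where a drop in reporter signal means calcineurin blockade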
# [26] = off-target signal loss in HeLa-CEM21 co-culture – HeLa F-luc CTL cells, cherry-picked, counter-screen for HIV-1 Env fusion inhibitor project, dose response (AID 652040); assay type: functional, cell-based;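 note: potency for signal decrease marking cytotoxic or nonspecific inhibition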
# [27] = inhibitors of clade B AD8 Env fusion, dose response, cell-based, cherry-pick (AID 652062); assay type: functional;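 note: luciferase signal from cell-cell fusion driven by HIV-1 clade B AD8 Env; potency is for inhibitors of fusion seen as a drop in luminescence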
# HEK293 = experiment: cells; assay type: functional, cell-based; settings: Homo sapiens
# [28] = target: T5, Nuclear receptor subfamily 0 group B member 1 (Homo sapiens, UniProt P51843); experiment: Luminescence-based cell-based high throughput dose response assay for inhibitors of the orphan nuclear receptor subfamily 0, group B, member 1 (DAX1; NR0B1). [Related pubchem assays (depositor defined):AID504766, AID504790]; assay type: functional
# T5 sequence (P51843 whole entry): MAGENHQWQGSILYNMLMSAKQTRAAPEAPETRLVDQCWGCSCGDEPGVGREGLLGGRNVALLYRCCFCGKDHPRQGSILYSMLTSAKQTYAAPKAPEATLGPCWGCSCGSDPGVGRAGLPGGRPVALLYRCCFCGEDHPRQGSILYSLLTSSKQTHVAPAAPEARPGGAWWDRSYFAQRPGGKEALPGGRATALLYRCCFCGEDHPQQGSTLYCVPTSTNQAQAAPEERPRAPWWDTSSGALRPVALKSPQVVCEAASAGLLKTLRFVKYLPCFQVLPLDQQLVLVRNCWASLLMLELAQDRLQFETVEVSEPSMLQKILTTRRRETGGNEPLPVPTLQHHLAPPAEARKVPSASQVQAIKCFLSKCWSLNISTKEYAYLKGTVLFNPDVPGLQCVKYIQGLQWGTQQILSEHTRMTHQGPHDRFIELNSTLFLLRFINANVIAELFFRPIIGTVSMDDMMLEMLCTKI
# [29] = target: T6, Polyadenylate-binding protein 1 (Homo sapiens, UniProt P11940); experiment: PABP1 MLLE–PAM2 interaction inhibitors, dose response, miRNA deadenylation inhibitor project, biochemical, fluorescence polarization, Cy5-PAM2 peptide, secondary (AID 602260); assay type: functional; settings: read-out: IC50_Mean
# [30] = target: T6, Polyadenylate-binding protein 1; experiment: PABP1 MLLE–PAM2 binding inhibitor potency, dose response, biochemical, fluorescence polarization, FITC-PAM2 peptide (AID 602259); assay type: functional; settings: read-out: IC50_Mean
# INS1 = experiment: beta cell apoptosis inhibitors, cytokine rescue, dose response, luminescence, retest (AID 449756); assay type: functional, cell-based; settings: Rattus norvegicus;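 note: cell death triggered by IL-1 beta plus TNF-alpha plus IFN-gamma mixture; protective hits raise ATP signal compared with cytokine alone wells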
# [31] = target: T7, Endoribonuclease toxin MazF (Escherichia coli K-12, UniProt P0AE70); experiment: MazF toxin RNase activators, dose response, biochemical, fluorescence, single-stranded RNA substrate, uHTS hits (AID 588481); assay type: functional
# T7 sequence (P0AE70 whole entry): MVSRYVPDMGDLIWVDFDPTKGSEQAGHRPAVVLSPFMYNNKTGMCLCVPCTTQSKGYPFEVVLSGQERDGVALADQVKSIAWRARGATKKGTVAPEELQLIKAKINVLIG
# [32] = target: T7, Endoribonuclease toxin MazF; experiment: fluorescent RNA oligo signal without MazF, dose response, counter-screen for MazEF activator project, biochemical, fluorescence, single-stranded RNase substrate (AID 588502); assay type: functional
# T2 sequence (P51452 whole entry): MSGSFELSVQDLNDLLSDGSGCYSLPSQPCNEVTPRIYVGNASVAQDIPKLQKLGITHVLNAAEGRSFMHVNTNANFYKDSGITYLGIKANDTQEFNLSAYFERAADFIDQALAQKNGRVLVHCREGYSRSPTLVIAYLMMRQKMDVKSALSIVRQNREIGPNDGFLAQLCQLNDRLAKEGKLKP
# Sequence of DNA dC->dU-editing enzyme APOBEC-3G (Q9HC16 whole entry): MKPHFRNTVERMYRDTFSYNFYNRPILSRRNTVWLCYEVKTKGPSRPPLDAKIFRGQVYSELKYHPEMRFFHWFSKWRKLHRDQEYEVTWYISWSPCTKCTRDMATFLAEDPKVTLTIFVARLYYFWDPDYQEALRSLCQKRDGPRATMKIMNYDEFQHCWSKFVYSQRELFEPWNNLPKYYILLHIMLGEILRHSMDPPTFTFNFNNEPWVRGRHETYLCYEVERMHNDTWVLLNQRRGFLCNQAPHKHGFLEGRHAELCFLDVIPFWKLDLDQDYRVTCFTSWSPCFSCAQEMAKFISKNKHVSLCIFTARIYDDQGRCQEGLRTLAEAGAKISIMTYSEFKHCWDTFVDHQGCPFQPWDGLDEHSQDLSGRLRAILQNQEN
# T6 sequence (P11940 whole entry): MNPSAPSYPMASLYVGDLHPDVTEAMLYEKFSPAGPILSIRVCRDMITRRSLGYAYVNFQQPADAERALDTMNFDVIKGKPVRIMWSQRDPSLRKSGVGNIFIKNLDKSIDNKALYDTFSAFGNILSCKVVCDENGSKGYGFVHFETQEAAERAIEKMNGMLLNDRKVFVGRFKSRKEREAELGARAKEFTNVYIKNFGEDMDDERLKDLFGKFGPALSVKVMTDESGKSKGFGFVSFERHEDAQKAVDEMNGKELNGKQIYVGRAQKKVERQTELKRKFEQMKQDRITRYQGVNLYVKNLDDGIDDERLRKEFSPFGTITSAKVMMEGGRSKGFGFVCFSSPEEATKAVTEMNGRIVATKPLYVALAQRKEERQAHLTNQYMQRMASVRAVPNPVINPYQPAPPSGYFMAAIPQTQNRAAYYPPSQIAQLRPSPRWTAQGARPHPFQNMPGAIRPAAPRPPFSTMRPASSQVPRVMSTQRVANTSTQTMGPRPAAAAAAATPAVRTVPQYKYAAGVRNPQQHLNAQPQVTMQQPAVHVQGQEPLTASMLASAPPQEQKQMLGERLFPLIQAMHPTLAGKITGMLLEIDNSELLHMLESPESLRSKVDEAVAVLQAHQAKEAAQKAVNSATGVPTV
# Sequence of DNA dC->dU-editing enzyme APOBEC-3A (P31941 whole entry): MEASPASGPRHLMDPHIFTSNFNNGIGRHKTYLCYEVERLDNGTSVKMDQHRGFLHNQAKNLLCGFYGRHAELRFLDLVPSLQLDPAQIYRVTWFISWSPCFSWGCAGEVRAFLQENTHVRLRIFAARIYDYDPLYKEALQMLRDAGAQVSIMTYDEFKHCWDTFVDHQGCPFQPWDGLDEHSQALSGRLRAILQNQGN
# Sequence of Serine/threonine-protein phosphatase (B9W6M3 whole entry, the tested form may be a part): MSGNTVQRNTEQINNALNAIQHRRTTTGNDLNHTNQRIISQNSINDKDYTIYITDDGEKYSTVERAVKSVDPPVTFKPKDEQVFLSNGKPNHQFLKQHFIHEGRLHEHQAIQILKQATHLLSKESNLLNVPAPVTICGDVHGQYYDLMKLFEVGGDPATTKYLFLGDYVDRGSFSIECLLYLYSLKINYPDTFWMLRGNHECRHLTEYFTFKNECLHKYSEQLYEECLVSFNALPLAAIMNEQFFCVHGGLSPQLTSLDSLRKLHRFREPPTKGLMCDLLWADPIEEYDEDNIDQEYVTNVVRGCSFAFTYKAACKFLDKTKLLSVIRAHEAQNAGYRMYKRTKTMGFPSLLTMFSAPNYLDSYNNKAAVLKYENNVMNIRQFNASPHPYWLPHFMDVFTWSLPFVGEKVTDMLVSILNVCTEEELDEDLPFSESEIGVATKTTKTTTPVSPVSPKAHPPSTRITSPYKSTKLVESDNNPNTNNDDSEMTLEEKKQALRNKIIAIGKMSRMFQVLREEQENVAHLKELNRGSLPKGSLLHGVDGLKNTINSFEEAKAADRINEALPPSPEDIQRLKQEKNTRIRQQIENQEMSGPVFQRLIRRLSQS
# Sequence of ATP-dependent molecular chaperone HSP82 (C4YTQ8 whole entry, the tested form may be a part): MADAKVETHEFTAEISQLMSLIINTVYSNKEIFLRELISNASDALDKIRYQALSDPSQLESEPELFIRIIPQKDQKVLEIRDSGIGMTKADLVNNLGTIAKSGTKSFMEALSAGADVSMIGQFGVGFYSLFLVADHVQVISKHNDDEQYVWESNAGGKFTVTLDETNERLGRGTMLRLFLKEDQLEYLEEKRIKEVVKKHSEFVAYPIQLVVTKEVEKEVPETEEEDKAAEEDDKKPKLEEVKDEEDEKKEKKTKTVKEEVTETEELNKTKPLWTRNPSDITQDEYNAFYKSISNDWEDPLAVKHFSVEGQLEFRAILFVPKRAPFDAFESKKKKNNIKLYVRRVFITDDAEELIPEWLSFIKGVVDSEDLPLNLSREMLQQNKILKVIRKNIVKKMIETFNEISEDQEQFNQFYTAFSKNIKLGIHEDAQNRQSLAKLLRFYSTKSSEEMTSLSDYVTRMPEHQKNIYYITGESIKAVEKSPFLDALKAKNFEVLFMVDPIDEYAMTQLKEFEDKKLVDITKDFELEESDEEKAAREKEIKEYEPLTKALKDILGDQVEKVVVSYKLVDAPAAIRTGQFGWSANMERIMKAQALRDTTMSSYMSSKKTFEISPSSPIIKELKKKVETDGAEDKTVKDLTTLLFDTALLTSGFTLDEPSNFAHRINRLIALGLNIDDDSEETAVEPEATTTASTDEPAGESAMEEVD
# Sequence of Sphingosine 1-phosphate receptor 2 (O95136 whole entry): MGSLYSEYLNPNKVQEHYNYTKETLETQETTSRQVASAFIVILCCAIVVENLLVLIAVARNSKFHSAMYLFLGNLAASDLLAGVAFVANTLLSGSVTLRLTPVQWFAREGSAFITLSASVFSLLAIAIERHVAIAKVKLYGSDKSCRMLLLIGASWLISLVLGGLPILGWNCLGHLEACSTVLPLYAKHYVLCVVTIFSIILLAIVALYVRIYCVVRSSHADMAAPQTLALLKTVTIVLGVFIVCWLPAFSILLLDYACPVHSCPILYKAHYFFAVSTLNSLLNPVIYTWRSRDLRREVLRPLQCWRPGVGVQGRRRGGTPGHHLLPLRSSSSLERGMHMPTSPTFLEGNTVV
# Sequence of Beta Lactamase (Q932Y6 whole entry): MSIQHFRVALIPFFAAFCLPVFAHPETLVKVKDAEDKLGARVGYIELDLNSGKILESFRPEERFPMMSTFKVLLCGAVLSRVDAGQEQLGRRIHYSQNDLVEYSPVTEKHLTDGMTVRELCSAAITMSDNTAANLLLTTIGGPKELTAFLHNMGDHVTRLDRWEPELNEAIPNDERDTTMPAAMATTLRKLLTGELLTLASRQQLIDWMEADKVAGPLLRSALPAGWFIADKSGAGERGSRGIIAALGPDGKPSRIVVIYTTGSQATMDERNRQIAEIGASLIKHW
compound,measurement,setting,value
Cc1cccc(-n2c(N)c(C(=O)N3CCN(C)CC3)sc2=S)c1,IC50,[1],4.7 µM (active)
same,IC50,[2],> 100 µM (inactive)
same,IC50,[3],0.96 µM (active)
same,IC50,[4],0.108 µM (active)
same,IC50,[5],> 100 µM (inactive)
same,IC50,[6],> 99 µM (inactive)
same,IC50,[7],3.6 µM (active) and 8.47 µM (active) and > 100 µM (inactive)
same,IC50,[8],12.2 µM (active)
same,IC50,[9],3.32 µM (active)
same,IC50,[10],> 99 µM (inactive)
CCC(C)Sc1ccc(-c2nc3cnccn3c2NC2CCCCC2)cc1 (stereo unspecified),IC50,Beta Lactamase,3.68 µM (active)
same,AC50,[11],3.63 µM (active)
same,IC50,CHO,21.4 µM (inactive)
CC1=C/C(=N\OS(=O)(=O)c2ccccc2)C=CC1=O,IC50,[2],> 100 µM (inactive)
same,EC50,[12],6.19 µM (active)
same,EC50,BJ [13],3.33 µM (active)
same,EC50,BJ [14],0.542 µM (inconclusive)
same,EC50,BJ [15],2.56 µM (active)
same,IC50,[8],7.43 µM (active)
same,IC50,[16],5.98 µM (active)
same,EC50,BJ [17],4.43 µM (inconclusive)
same,IC50,[18],2.71 µM (active)
C(=C\c1ccccc1)/CN1CCN(c2ncnc3c2oc2ccccc23)CC1,EC50,[19],> 160 µM (inactive)
same,AC50,[20],65.4 µM (active)
same,EC50,[21],0.041 µM (active)
same,EC50,[22],> 160 µM (inconclusive)
same,AC50,[23],0.57 µM (active)
same,AC50,[24],1.98 µM (active)
same,EC50,[25],> 180 µM (inactive)
same,AC50,[26],25.9 µM (active)
same,AC50,[27],9.31 µM (active)
CCSc1nnc(NC(=O)C2CCCN(S(=O)(=O)c3c[nH]cn3)C2)s1 (stereo unspecified),IC50,HEK293,> 67.5 µM (inactive)
same,IC50,[28],> 67.5 µM (inactive)
Oc1c(/C=N/Cc2ccccc2)sc2ccccc12,IC50,[29],> 66 µM (inactive)
same,IC50,HEK293,> 22.5 µM (inactive)
same,IC50,[28],> 67.5 µM (inactive)
same,IC50,[30],> 66 µM (inactive)
Cc1ccc(NC(=O)c2ccccc2NS(=O)(=O)c2ccc(Cl)s2)cc1,EC50,[19],7.91 µM (active)
same,AC50,INS1,4.46 µM (active)
same,EC50,[21],0.215 µM (active)
same,EC50,[22],20.5 µM (active)
same,EC50,[25],> 180 µM (inactive)
Cc1cc(NC(=O)CSc2nc(-c3ccccc3Cl)nc3c2c(=O)n(C)c(=O)n3C)no1,EC50,[31],> 99 µM (inactive)
same,EC50,[32],> 99 µM (inactive)
COC(=O)CSc1nc2ccc(C)cc2cc1C#N,EC50,[31],> 99 µM (inactive)
same,EC50,[32],> 99 µM (inactive)
